Molecules are shown by their SMILES. “Also recorded” adds a separate entry of the source. Read-outs that look alike come from different tables or passages of the source.

The values below come from PMC10870825, “Design, synthesis, and inhibitory activity of hydroquinone ester derivatives against mushroom tyrosinase” (RSC Advances, 2024).

The target in series [1] is T1, mushroom tyrosinase (mTyr) (Agaricus bisporus, UniProt C7FF04). The series is described as follows: Inhibitory activity assay on mTyr with L-tyrosine as substrate. It is filed as biochemical. The conditions noted are these: for Concentration at maximum inhibition rate: second figure of the cell rate/concentration. The procedure:
The synthesized hydroquinone ester derivatives were dissolved in 3% dimethyl sulfoxide (DMSO) solution and then diluted with phosphate-buffered solution (PBS, pH 6.86, 100 mM) to obtain different concentrations. […] The plate was incubated at 37 °C for 30 minutes, after which 20 μL of L-tyrosine solution (1 mM) was added and mixed. The absorbance at a wavelength of 475 nm was measured using a SpectraMax 190 microplate reader (MolecularDevices, USA) continuously for 30 minutes. PBS was used as a blank control, and kojic acid was used as a positive control.

The target of series [2] is T1, mushroom tyrosinase (mTyr). The conditions noted are these: read-out: IC50 for inhibiting mTyr activity; literature value; ref [15]; cited from earlier work.
Series [3] deals with T1, mushroom tyrosinase (mTyr). In words: Inhibition reversibility and type assay (Lineweaver–Burk kinetics) on mTyr. In kind it is biochemical. The conditions noted are these: for Inhibition type: Lineweaver–Burk plots, 300 U/mL mTyr, varying L-tyrosine. On the procedure:
The methodology for evaluating the reversibility of inhibition and the inhibition type of the compounds on mTyr closely parallels the procedure outlined in the inhibitory activity assay of compounds on mTyr.
For the evaluation of inhibition reversibility, a constant concentration of 1 mM L-tyrosine was employed. […] The absorption was measured to determine the initial enzymatic reaction rate corresponding to each enzyme concentration. Specifically, the initial enzymatic reaction rate was calculated by subtracting the initial absorbance from the absorbance recorded at a specific time and then dividing the result by the corresponding time interval.[32] Subsequently, the collected data were plotted on a scatter plot, with the initial enzymatic reaction rate represented on the Y-axis and the enzyme concentration on the X-axis. In cases of reversibility, this will result in fitting a set of straight lines passing through the origin. Conversely, when reversibility was absent, a set of parallel lines emerged as the fit.[33]
In order to investigate the inhibition type, a final concentration of 300 U per mL mTyr was employed, accompanied by varying concentrations of L-tyrosine. The enzymatic reaction rate was evaluated for different concentrations of compounds 3a–3e. Subsequently, the ΔOD475 values were plotted against the L-tyrosine concentration using the Lineweaver–Burk equation, allowing for the creation of double reciprocal plots.

The subject of series [4] is human epidermal melanoma A375 cells. The series is described as follows: CCK-8 cell proliferation and cytotoxicity assay, A375 cells. It is filed as cell-based. On the procedure:
(§1) Cell proliferation and cytotoxicity assays were performed using the CCK-8 on Human Epidermal Melanoma A375 and HaCaT cells. Initially, the cells were seeded in 96-well plates at a density of 4 × 10^4 cells per well and incubated for 24 hours at 37 °C with 5% CO2 in a humidified incubator. Each treatment was conducted in six duplicate wells. Various concentrations of the tested compounds were added to the wells, and the cells were further incubated for 72 hours. After the incubation period, CCK-8 solution was added to each well and incubated for an additional 2 hours. The absorbance of each well at 450 nm was measured using an absorbance microplate reader (BioTek ELx800, USA). Negative controls with cells treated with distilled water and positive controls with cells were treated with 10 μg mL^−1 taxol was included in the assay. The percentage of cell growth inhibition was calculated using eqn (2).2 [drawing 1] where G1 represents the absorbance of a mixture containing cells, medium, and CCK8, G2 represents the absorbance of absorbance of a mixture containing cells, medium, CCK8, and the test compound; G3 represents a mixture containing medium and CCK8.
(§2) Cell growth and morphology were observed using an inverted microscope (Olympus IX51, Japan). The experiments were conducted in triplicate to ensure accuracy and consistency of results.

Series [5] relates to human immortalized keratinocyte (HaCaT) non-tumor cells. The series is described as follows: CCK-8 cell proliferation and cytotoxicity assay, HaCaT cells. In kind it is cell-based. On the procedure:
as §1, §2

Setting [6] is: substrate L-tyrosine, read-out: IC50 for inhibiting mTyr activity.

T1 sequence (C7FF04 1-392): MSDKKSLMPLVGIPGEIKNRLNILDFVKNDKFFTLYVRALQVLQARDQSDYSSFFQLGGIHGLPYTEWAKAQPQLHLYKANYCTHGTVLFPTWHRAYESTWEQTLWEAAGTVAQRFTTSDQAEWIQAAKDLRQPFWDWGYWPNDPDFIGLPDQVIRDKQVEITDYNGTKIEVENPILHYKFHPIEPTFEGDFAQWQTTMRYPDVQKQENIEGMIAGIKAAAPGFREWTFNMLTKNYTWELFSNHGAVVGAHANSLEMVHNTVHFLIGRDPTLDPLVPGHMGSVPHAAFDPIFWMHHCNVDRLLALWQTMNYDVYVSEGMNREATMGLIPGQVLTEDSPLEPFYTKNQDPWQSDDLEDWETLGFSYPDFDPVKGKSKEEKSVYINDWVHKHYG

As to `O=C(O)C=Cc1ccc(O)cc1` [4-Hydroxycinnamic acid, 4-hydroxycinnamic acid, reference compound], in series [1], the IC50 came out at 16.4 ± 5.42 µM and the “Concentration at maximum inhibition rate” value is 50 µM.
Turning to `O=C(O)/C=C/c1ccccc1` [Cinnamic acid, cinnamic acid], the IC50 in series [2] is 201 ± 5.3 µM.
For `O=C(/C=C/c1ccc(O)cc1)Oc1ccc(O)cc1` [Compound 3a, 4-hydroxyphenyl (2E)-3-(4-hydroxyphenyl) prop-2-enoate], the melting point fell in the range of 217 to 220 °C. In series [3], the Inhibition type entry is listed as “Noncompetitive; also recorded: non-competitive inhibition; also recorded: non-competitive inhibitors”. Moreover, the “maximum reaction rate (Vm) of mTyr” value in series [3] (compound concentration 5 μM) is reported as 0.4272 ×103, min-1. Further, the “maximum reaction rate (Vm) of mTyr” value in series [3] (compound concentration 10 μM) is on record as 0.2843 ×103, min-1. Besides, in series [3] (compound concentration 20 μM), the “maximum reaction rate (Vm) of mTyr” value is 0.1836 ×103, min-1. In series [1], the “Concentration at maximum inhibition rate” value was found to be 10 µM. In addition, the 50% inhibitory concentration (IC50) in series [1] (setting [6]) was found to be 1.75 ± 0.02 µM.
Compound `O=C(C=Cc1ccccc1)Oc1ccc(O)cc1` [Compound 3b, 4-hydroxyphenyl cinnamate] registered a melting point of 171 to 173 °C. In addition, the inhibition at 50 µM in series [4] (A-375, 50 μM, read-out: inhibition rate on A375 cells) stood at 60.9%. Further, the IC50 in series [4] (A-375, 72 hours, CCK-8, read-out: IC50 against A375 cells) worked out at 40.8 µM. The Inhibition type entry in series [3] is on record as “Mix-noncompetitive; also recorded: mixed-type inhibition”. Moreover, in series [3] (compound concentration 1 μM), the “maximum reaction rate (Vm) of mTyr” value is reported as 0.7572 ×103, min-1. Also, the “maximum reaction rate (Vm) of mTyr” value in series [3] (compound concentration 2 μM) is listed as 0.3461 ×103, min-1. In addition, the “maximum reaction rate (Vm) of mTyr” value in series [3] (compound concentration 4 μM) is listed as 0.2145 ×103, min-1. Also, the inhibitory constant (Ki) in series [3] (read-out: free enzyme inhibition constant (KI)) is 1.88 µM. The “mTyr–substrate complex inhibition constant (KIS)” value in series [3] (secondary plots, mixed-type inhibition) was determined as 0.3395 µM. Further, in series [5] (Homo sapiens, HaCaT, 50 μM, read-out: inhibition rate on HaCaT cells), the inhibition at 50 µM was determined as 9.09%. In addition, the IC50 in series [5] (Homo sapiens, HaCaT, 72 hours, CCK-8, read-out: IC50 against HaCaT cells) came to 169 µM. The “inhibition rate on HaCaT cells” value in series [5] (concentration range 3.125–25 μM) is “below 5%”. Besides, the “Concentration at maximum inhibition rate” value in series [1] was 2.5 µM. For the same compound, the IC50 in series [1] (setting [6]) was found to be 0.18 ± 0.06 µM.
Compound `O=C(CCc1ccccc1)Oc1ccc(O)cc1` [Compound 3c, 4-hydroxyphenyl 3-phenylpropanoate] yielded a melting point of 149 to 151 °C. For the same compound, in series [3], the Inhibition type entry was “Noncompetitive; also recorded: non-competitive inhibition; also recorded: non-competitive inhibitors”. Besides, the “maximum reaction rate (Vm) of mTyr” value in series [3] (compound concentration 5 μM) is listed as 0.6327 ×103, min-1. For the same compound, in series [3] (compound concentration 10 μM), the “maximum reaction rate (Vm) of mTyr” value was 0.3424 ×103, min-1. For the same compound, the “maximum reaction rate (Vm) of mTyr” value in series [3] (compound concentration 20 μM) was 0.2581 ×103, min-1. Also, in series [1], the “Concentration at maximum inhibition rate” value came out at 50 µM. The IC50 in series [1] (setting [6]) amounted to 7.46 ± 0.9 µM.
As to `O=C(Oc1ccc(O)cc1)c1ccccc1` [Compound 3d, 4-hydroxyphenyl benzoate], the melting point lay in the range of 150 to 152 °C. The Inhibition type entry in series [3] was “competitive inhibition; also recorded: competitive inhibitors”. In addition, in series [3] (compound concentration 5 μM), the “maximum reaction rate (Vm) of mTyr” value is recorded as 0.9216 ×103, min-1. Further, the “maximum reaction rate (Vm) of mTyr” value in series [3] (compound concentration 10 μM) is on record as 0.9208 ×103, min-1. Besides, in series [3] (compound concentration 20 μM), the “maximum reaction rate (Vm) of mTyr” value was 0.9209 ×103, min-1. The “Concentration at maximum inhibition rate” value in series [1] was 75 µM. The half-maximal inhibitory concentration (IC50) in series [1] (setting [6]) turned out to be 20.5 ± 1.79 µM.
`O=C(Oc1ccc(O)cc1)c1ccc(F)cc1` [Compound 3e, 4-hydroxyphenyl 4-fluorobenzoate] came in with a melting point of 142 to 144 °C. Further, the Inhibition type result in series [3] is “competitive inhibition; also recorded: competitive inhibitors”. Further, the “maximum reaction rate (Vm) of mTyr” value in series [3] (compound concentration 5 μM) is 1.474 ×103, min-1. Further, the “maximum reaction rate (Vm) of mTyr” value in series [3] (compound concentration 10 μM) is reported as 1.470 ×103, min-1. The “maximum reaction rate (Vm) of mTyr” value in series [3] (compound concentration 20 μM) is recorded as 1.468 ×103, min-1. Further, in series [1], the “Concentration at maximum inhibition rate” value is 100 µM. In addition, the IC50 in series [1] (setting [6]) came out at 24.7 ± 3.04 µM.
Consider `O=C(Oc1ccc(OC(=O)c2ccc(F)cc2)cc1)c1ccc(F)cc1` [Compound 3f, 1,4-phenylene bis(4-fluorobenzoate)], for which the melting point lay within 196 to 198 °C. For the same compound, the “Concentration at maximum inhibition rate” value in series [1] amounted to 100 µM. In series [1] (setting [6]), the half-inhibitory concentration (IC50) was determined as 54.2 ± 8.65 µM.
Compound `O=C(CCc1ccccc1)Oc1ccc(OC(=O)CCc2ccccc2)cc1` [Compound 3g, 1,4-phenylene bis(3-phenylpropanoate)] displayed a melting point of 128 to 130 °C.
`Oc1ccc(O)cc1` [Hydroquinone, hydroquinone]: the “Concentration at maximum inhibition rate” value in series [1] turned out to be 75 µM. Also, the IC50 in series [1] (setting [6]) was 22.78 ± 0.16 µM.

A word on the IC50: it is the midpoint of a concentration-inhibition curve. A word on the melting point: it is the temperature of the solid-liquid transition. The inhibition is the change of the read-out against control, counted positive when it falls. For orientation: Ki means a measure of affinity in units of concentration, obtained from inhibition or displacement.
